Some test systems named below: LXFL 529; RXF 631; DMS-114; SNB-78; DMS-273; M19-MEL; KM-20L2; HOP-18; XF498.
Common to all, as to assay: NCI anticancer screen, dose series, 48 h

Molecules are shown by their SMILES.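 Results reflect a 48-hour exposure of cells in 96-well plates to compound at five concentrations. GI50 = concentration required for 50% inhibition of growth.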 Active and inactive are the calls of the source. No stated cut-off is given here; in the data, active = GI50 up to about 1.1 µM and inactive = higher.

For the compound `N=C(N)NNC(=O)CCCCCCCC(=O)NNC(=N)N`, the GI50 is > 100 µM (inactive) with LXFL 529; > 100 µM (inactive) in the test on RXF 631; 62.7 µM (inactive) in the test with DMS-114; > 100 µM (inactive) with SNB-78; > 100 µM (inactive) in the test with DMS-273; > 100 µM (inactive) in the test on M19-MEL. Moreover, in the test on KM-20L2, the GI50 is > 100 µM (inactive).

On to `O=C(/C=C/c1ccc[nH]1)c1ccccc1`, for which the GI50 was > 100 µM (inactive) with LXFL 529; 40.2 µM (inactive) with HOP-18; > 100 µM (inactive) in the test with DMS-114; > 100 µM (inactive) with SNB-78; > 100 µM (inactive) in the test with DMS-273; > 100 µM (inactive) in the test on M19-MEL. Also, the GI50 with KM-20L2 was > 100 µM (inactive).

In the case of `CCCc1c2c([nH]c(=O)c1C)C(=O)c1[nH]c(=O)c(C)c(CCC)c1C2=O`, the GI50 in the test on LXFL 529 is 63.2 µM (inactive); in the test on HOP-18, > 100 µM (inactive); in the test with DMS-114, 2.51 µM (inactive); with SNB-78 it was 30.3 µM (inactive); in the test with M19-MEL, 2.21 µM (inactive).

Consider `COc1nc(OC)c2c(=O)oc(-c3ccccc3)cc2n1`, for which the GI50 in the test on LXFL 529, with DMS-114, with SNB-78, with DMS-273, in the test with M19-MEL and in the test on KM-20L2 was > 100 µM (inactive) each time.

Take `CN(C)CCNC(=O)c1cccc2ccc(-c3ccncc3)nc12`: the GI50 was 3.47 µM (inactive) in the test with HOP-18; 2.96 µM (inactive) in the test with DMS-114; 7.24 µM (inactive) with SNB-78; 1.1 µM (active) in the test on DMS-273; 1.89 µM (inactive) with M19-MEL.

In the case of `COc1ccc2c(c1)CC1NC2Cc2ccccc21` (stereo not drawn), the GI50 with LXFL 529, in the test on HOP-18, in the test with DMS-114, in the test on SNB-78, with M19-MEL and in the test with XF498 was > 100 µM (inactive) throughout. Besides, the GI50 with KM-20L2 was > 100 µM (inactive).

For the compound `CCC1c2cc3n(c(=O)c2COC1O)Cc1c-3nc2ccccc2c1Cl` (stereo not drawn), the GI50 is > 80.7 µM (inactive) in the test on LXFL 529; > 75.7 µM (inactive) with HOP-18; 49.4 µM (inactive) with DMS-114; > 100 µM (inactive) in the test with SNB-78; 4.4 µM (inactive) with DMS-273; 69.3 µM (inactive) in the test with M19-MEL. For the same compound, the GI50 is > 100 µM (inactive) with XF498 and > 69.7 µM (inactive) with KM-20L2.

For `N=C(N)N/N=C/c1c[nH]c2ccccc12`, the GI50 in the test on LXFL 529 was > 100 µM (inactive); with HOP-18, > 100 µM (inactive); in the test with DMS-114 it was 81.8 µM (inactive); in the test with SNB-78, > 100 µM (inactive); in the test with DMS-273 it was > 100 µM (inactive); in the test on KM-20L2, > 100 µM (inactive).

In the case of `CCOC(=O)c1cc(/C=C/C(C)=C/C(=O)OC)oc1C`, the GI50 in the test with LXFL 529, in the test with DMS-114, with SNB-78, with M19-MEL, in the test on XF498 and in the test with KM-20L2 was > 100 µM (inactive) in each case.

For the compound `COc1cc(/C=N\c2ccc(C(C)C)cc2)cc(OC)c1OC`, the GI50 is 99.5 µM (inactive) with LXFL 529; > 100 µM (inactive) in the test with HOP-18; 49.5 µM (inactive) with DMS-114; > 100 µM (inactive) in the test on SNB-78; > 72.4 µM (inactive) with DMS-273; > 92 µM (inactive) with M19-MEL. Also, the GI50 in the test on XF498 and in the test on KM-20L2 was > 100 µM (inactive) each time.

Regarding `CCC12C=CCN3CC[C@]4(C(=C(C(=O)OC)[C@@H]1Nc1ccn(C5OC(COC(C)=O)C(OC(C)=O)C5OC(C)=O)c(=O)n1)Nc1ccccc14)C32` (stereo partly drawn), the GI50 in the test with LXFL 529 was 4.42 µM (inactive); with HOP-18 it was 6.92 µM (inactive); with SNB-78 it was 5.42 µM (inactive); in the test with DMS-273 it was 4.28 µM (inactive); with M19-MEL, 3.98 µM (inactive); in the test on XF498, 5.74 µM (inactive). For the same compound, the GI50 in the test with KM-20L2 was 4.66 µM (inactive).

On to `[O-][S+]1Nc2c(Cl)cc(Cl)c3c(Cl)cc(Cl)c(c23)N1`, for which the GI50 in the test with LXFL 529 was 40.3 µM (inactive); with HOP-18, 34.1 µM (inactive); with RXF 631, 31.8 µM (inactive); with DMS-114, 36.3 µM (inactive); in the test on DMS-273, 39.4 µM (inactive); with M19-MEL, 32.4 µM (inactive). In the test on KM-20L2, the GI50 is 46.5 µM (inactive).

For the compound `Nc1ccc(C(=O)NN2C(=O)C(Cl)C2c2ccc([N+](=O)[O-])cc2)cc1` (stereo not drawn), the GI50 was 4.86 µM (inactive) in the test with LXFL 529; 2.84 µM (inactive) with DMS-114; 22.6 µM (inactive) in the test on SNB-78; 5.62 µM (inactive) in the test on DMS-273; 14.6 µM (inactive) in the test on M19-MEL; 13.4 µM (inactive) with KM-20L2.

For the compound `CC(=O)NC(CCCN(Cc1ccccc1)C(=O)NCCCl)C(=O)NCc1ccccc1` (stereo not drawn), the GI50 in the test on LXFL 529, in the test on HOP-18, in the test with DMS-114, with SNB-78, with DMS-273 and in the test with M19-MEL was > 100 µM (inactive) throughout. The GI50 in the test on KM-20L2 is > 100 µM (inactive).

Take `CCOC(=O)C1=C(C)NC(=O)NC1c1ccc(OC)cc1OC` (stereo not drawn): the GI50 with LXFL 529, in the test on HOP-18, with DMS-114, in the test with SNB-78, in the test with DMS-273 and in the test on M19-MEL was > 100 µM (inactive) throughout. Moreover, the GI50 in the test on XF498 and in the test with KM-20L2 was > 100 µM (inactive) each time.

As for `Cc1ccc([S+](c2ccccc2)c2cc(C)ccc2C)cc1` (stereo not drawn), the GI50 was 1.38 µM (inactive) in the test with HOP-18, 1.08 µM (active) in the test on DMS-114, 0.859 µM (active) with DMS-273 and 1.62 µM (inactive) in the test with M19-MEL.

As to `Clc1ccc(C2=Nc3ccccc3SC(c3cccs3)C2)cc1` (stereo not drawn), the GI50 in the test on LXFL 529 is 17.5 µM (inactive); in the test on HOP-18 it was 18.6 µM (inactive); in the test on DMS-114, 15.2 µM (inactive); in the test on SNB-78 it was 28.9 µM (inactive); with DMS-273, 14 µM (inactive); in the test with M19-MEL, 15.2 µM (inactive). The values for the GI50 in the test on XF498 and in the test on KM-20L2 were 16.1 µM (inactive) and 16.6 µM (inactive), respectively.

Consider `CO[C@H](C(=O)O[C@H]1C(=O)N2CC[C@@H]3CCC[C@H]1C32C)c1ccccc1` (stereo partly drawn), for which the GI50 in the test with LXFL 529, with DMS-114, with SNB-78, in the test with M19-MEL and with KM-20L2 was > 100 µM (inactive) in each case.

As for `CCC1=CC2CN3Cn4c(c(COCc5c6n(c7ccccc57)CN5CC7C=C(CC)C5C6(C(=O)OC)C7)c5ccccc54)C(C(=O)OC)(C2)C13`, the GI50 with LXFL 529 is > 100 µM (inactive); in the test with DMS-114, > 100 µM (inactive); with DMS-273, > 100 µM (inactive); with M19-MEL, 47.2 µM (inactive); in the test on XF498, > 100 µM (inactive); with KM-20L2 it was > 100 µM (inactive).

Regarding `COc1cccc(C(=O)O)c1Cc1cccc2ccccc12`, the GI50 in the test on LXFL 529, in the test on HOP-18, in the test on DMS-273, in the test with M19-MEL and in the test on KM-20L2 was > 100 µM (inactive) each time.
